Results on 1 compound are retold here after patent US20080188483A1, “Compounds and Compositions as Protein Kinase Inhibitors” (IRM LLC, priority 2006, published 2008).

For assay [1], the target named is T1, FGFR3 (Ba/F3-TEL-FGFR3 cells) (Homo sapiens, UniProt P22607).
T1 construct: expressed in transfected cells; host or cells: Ba/F3; the other entry of the earlier key: ETV6 (P41212, Transcription factor ETV6)
Kind of assay: FGFR3 cellular assay (Ba/F3-TEL-FGFR3 proliferation). The class given is cell-based. As to the method: Compounds of the invention are tested for their ability to inhibit transformed Ba/F3-TEL-FGFR3 cells proliferation, which is depended on FGFR3 cellular kinase activity. Ba/F3-TEL-FGFR3 are cultured up to 800,000 cells/mL in suspension, with RPMI 1640 supplemented with 10% fetal bovine serum as the culture medium. Cells are dispensed into 384-well format plate at 5000 cell/well in 50 μL culture medium. Compounds of the invention are dissolved and diluted in dimethylsulfoxide (DMSO). Twelve points 1:3 serial dilutions are made into DMSO to create concentrations gradient ranging typically from 10 mM to 0.05 μM. Cells are added with 50 nL of diluted compounds and incubated for 48 hours in cell culture incubator. AlamarBlue® (TREK Diagnostic Systems), which can be used to monitor the reducing environment created by proliferating cells, are added to cells at final concentration of 10%. After additional four hours of incubation in a 37° C. cell culture incubator, fluorescence signals from reduced AlamarBlue® (Excitation at 530 nm, Emission at 580 nm) are quantified on Analyst GT (Molecular Devices Corp.). IC50 values are calculated by linear regression analysis of the percentage inhibition of each compound at 12 concentrations.

The target of assay [2] is T2, purified FGFR3 (Upstate) (Homo sapiens, UniProt P22607).
T2 construct: purchased Upstate
T2 sequence (P22607 23-806): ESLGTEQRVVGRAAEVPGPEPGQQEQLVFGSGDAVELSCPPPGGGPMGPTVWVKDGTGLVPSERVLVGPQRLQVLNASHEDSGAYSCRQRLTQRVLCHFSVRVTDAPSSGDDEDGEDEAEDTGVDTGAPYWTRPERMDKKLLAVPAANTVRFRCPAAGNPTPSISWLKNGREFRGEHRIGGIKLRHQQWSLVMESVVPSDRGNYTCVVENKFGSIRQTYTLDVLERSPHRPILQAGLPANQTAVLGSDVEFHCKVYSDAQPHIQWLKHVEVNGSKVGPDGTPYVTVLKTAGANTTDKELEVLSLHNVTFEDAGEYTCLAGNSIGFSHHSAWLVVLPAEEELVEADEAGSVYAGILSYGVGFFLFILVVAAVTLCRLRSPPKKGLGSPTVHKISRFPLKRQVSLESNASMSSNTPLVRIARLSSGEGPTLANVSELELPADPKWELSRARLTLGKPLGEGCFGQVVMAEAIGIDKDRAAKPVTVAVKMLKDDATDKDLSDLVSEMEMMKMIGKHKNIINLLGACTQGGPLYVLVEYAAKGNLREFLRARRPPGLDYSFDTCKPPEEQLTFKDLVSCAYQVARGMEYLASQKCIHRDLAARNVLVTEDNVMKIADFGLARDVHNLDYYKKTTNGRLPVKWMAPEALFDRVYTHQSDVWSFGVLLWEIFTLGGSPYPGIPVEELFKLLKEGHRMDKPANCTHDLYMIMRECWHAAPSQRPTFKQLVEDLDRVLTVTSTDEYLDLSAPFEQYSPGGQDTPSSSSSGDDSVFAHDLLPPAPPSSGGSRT
The assay can be described thus: FGFR3 enzymatic assay (HTRF). Format: biochemical. As to the method:
Kinase activity assay with purified FGFR3 (Upstate) is carried out in a final volume of 10 μL containing 0.25 μg/mL of enzyme in kinase buffer (30 mM Tris-HCl pH7.5, 15 mM MgCl2, 4.5 mM MnCl2, 15 μM Na3VO4 and 50 μg/mL BSA), and substrates (5 μg/mL biotin-poly-EY(Glu, Tyr) (CIS-US, Inc.) and 3 μM ATP). Two solutions are made: the first solution of 5 μl contains the FGFR3 enzyme in kinase buffer was first dispensed into 384-format ProxiPlate® (Perkin-Elmer) followed by adding 50 nL of compounds dissolved in DMSO, then 5 μl of second solution contains the substrate (poly-EY) and ATP in kinase buffer was added to each wells. The reactions are incubated at room temperature for one hour, stopped by adding 10 μL of HTRF detection mixture, which contains 30 mM Tris-HCl pH7.5, 0.5 M KF, 50 mM ETDA, 0.2 mg/mL BSA, 15 μg/mL streptavidin-XL665 (CIS-US, Inc.) and 150 ng/mL cryptate conjugated anti-phosphotyrosine antibody (CIS-US, Inc.). After one hour of room temperature incubation to allow for streptavidin-biotin interaction, time resolved florescent signals are read on Analyst GT (Molecular Devices Corp.). IC50 values are calculated by linear regression analysis of the percentage inhibition of each compound at 12 concentrations (1:3 dilution from 50 μM to 0.28 nM).
A general note: TR-FRET usually uses a lanthanide donor and a delayed reading to cut background.

T1 sequence (P22607 472-761 limits assumed): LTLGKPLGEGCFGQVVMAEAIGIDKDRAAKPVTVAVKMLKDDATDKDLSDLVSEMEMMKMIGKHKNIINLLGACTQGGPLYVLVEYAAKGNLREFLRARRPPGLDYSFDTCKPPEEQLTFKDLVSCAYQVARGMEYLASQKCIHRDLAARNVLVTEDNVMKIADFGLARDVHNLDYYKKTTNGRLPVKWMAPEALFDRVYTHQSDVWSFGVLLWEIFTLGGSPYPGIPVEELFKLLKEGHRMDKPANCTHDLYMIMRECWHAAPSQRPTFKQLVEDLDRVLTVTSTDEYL

For the compound `CCN1CCN(Cc2ccc(NC(=O)c3cc(Nc4nccn4-c4ncnc5[nH]ccc45)cc(OC)c3)cc2C(F)(F)F)CC1` [Compound 9, N-[4-(4-ethyl-piperazin-1-ylmethyl)-3-trifluoromethyl-phenyl]-3-methoxy-5-[1-(7H-pyrrolo[2,3-d]pyrimidin-4-yl)-1H-imidazol-2-ylamino]-benzamide], the IC50 (commonly the midpoint of a concentration-inhibition curve) in assay [1] came out at 40 nM; in assay [2], 4 nM.
